≈ marks a conversion by molar mass, not a printed value.
Legend:
HeLa [1] = assay: Minimum cytotoxic concentration (MCC) required to cause a microscopically detectable alteration of host cell morphology, when incubated with HeLa cells; type: functional; conditions: Homo sapiens
WI-38 [2] = assay: Minimum cytotoxic concentration (MCC) required to cause a microscopically detectable alteration of host cell morphology, when incubated with WI-38 cells; type: functional; conditions: Homo sapiens
Vero [3] = assay: Minimum inhibitory concentration (MIC) required to reduce virus-induced cytopathogenicity by 50% against Parainfluenza virus-3 in African green monkey kidney (Vero B)cells; type: functional, Chlorocebus sabaeus; conditions: Chlorocebus sabaeus; read-out: MIC
WI-38 [4] = assay: Minimum inhibitory concentration (MIC) required to reduce virus-induced cytopathogenicity by 50% against Rhinovirus 9 in human diploid (WI-38)cells; type: functional; conditions: Homo sapiens; read-out: MIC
Vero [5] = assay: Minimum inhibitory concentration (MIC) required to reduce virus-induced cytopathogenicity by 50% against Coxsackie virus B4 in African green monkey kidney (Vero B)cells; type: functional, Chlorocebus sabaeus; conditions: Chlorocebus sabaeus; read-out: MIC
Oryctolagus cuniculus [6] = species: Oryctolagus cuniculus; assay: Minimum inhibitory concentration (MIC) required to reduce virus-induced cytopathogenicity by 50% against KOS strain of Herpes simplex virus-1 in primary rabbit kidney cells; type: functional
HeLa [7] = assay: Minimum inhibitory concentration (MIC) required to reduce virus-induced cytopathogenicity by 50% against Coxsackie virus B4 in HeLa cells; type: functional; conditions: Homo sapiens
Vero [8] = assay: Minimum inhibitory concentration (MIC) required to reduce virus-induced cytopathogenicity by 50% against Sindbis virus in African green monkey kidney (Vero B)cells; type: functional; conditions: Chlorocebus sabaeus
[9] = Minimum cytotoxic concentration (MCC) required to cause a microscopically detectable alteration of host cell morphology, when incubated with PRK cells; type: functional; conditions: Oryctolagus cuniculus
Oryctolagus cuniculus [10] = species: Oryctolagus cuniculus; assay: Minimum inhibitory concentration (MIC) required to reduce virus-induced cytopathogenicity by 50% against G strain of Herpes simplex virus-2 in primary rabbit kidney cells; type: functional; conditions: Oryctolagus cuniculus; read-out: MIC
WI-38 [11] = assay: Minimum inhibitory concentration (MIC) required to reduce virus-induced cytopathogenicity by 50% against Rhinovirus-1A in human diploid (WI-38)cells; type: functional
Vero [12] = assay: Minimum inhibitory concentration (MIC) required to reduce virus-induced cytopathogenicity by 50% against forest virus in African green monkey kidney (Vero B)cells; type: functional; conditions: Chlorocebus sabaeus
Vero [13] = assay: Minimum inhibitory concentration (MIC) required to reduce virus-induced cytopathogenicity by 50% against Reo virus-1 in African green monkey kidney (Vero B)cells; type: functional, Chlorocebus sabaeus; conditions: Chlorocebus sabaeus; read-out: MIC
Vero [14] = assay: Minimum cytotoxic concentration (MCC) required to cause a microscopically detectable alteration of host cell morphology, when incubated with Vero B cells; type: functional; conditions: Chlorocebus sabaeus
HeLa [15] = assay: Minimum inhibitory concentration (MIC) required to reduce virus-induced cytopathogenicity by 50% against Vesicular stomatitis virus in HeLa cells; type: functional; conditions: Homo sapiens
HeLa [16] = assay: Minimum inhibitory concentration (MIC) required to reduce virus-induced cytopathogenicity by 50% against Polio virus-1 in HeLa cells; type: functional; conditions: Homo sapiens
Oryctolagus cuniculus [17] = species: Oryctolagus cuniculus; assay: Minimum inhibitory concentration (MIC) required to reduce virus-induced cytopathogenicity by 50% against Vaccinia virus in primary rabbit kidney cells; type: functional; conditions: Oryctolagus cuniculus; read-out: MIC
Oryctolagus cuniculus [18] = species: Oryctolagus cuniculus; assay: Minimum inhibitory concentration (MIC) required to reduce virus-induced cytopathogenicity by 50% against Vesicular stomatitis virus in primary rabbit kidney cells; type: functional

Row | Structure (SMILES) | MCC (HeLa [1]) [µg/mL] | MCC (WI-38 [2]) [µg/mL] | MIC (Vero [3]) [µg/mL] | MIC (WI-38 [4]) [µg/mL] | MIC (Vero [5]) [µg/mL] | MIC (Oryctolagus cuniculus [6]) [µg/mL] | MIC (HeLa [7]) [µg/mL] | MIC (Vero [8]) [µg/mL] | MCC [9] [µg/mL] | MIC (Oryctolagus cuniculus [10]) [µg/mL] | MIC (WI-38 [11]) [µg/mL] | MIC (Vero [12]) [µg/mL] | MIC (Vero [13]) [µg/mL] | MCC (Vero [14]) [µg/mL] | MIC (HeLa [15]) [µg/mL] | MIC (HeLa [16]) [µg/mL] | MIC (Oryctolagus cuniculus [17]) [µg/mL] | MIC (Oryctolagus cuniculus [18]) [µg/mL]
1 | O=c1ccn([C@H]2O[C@H](CO)[C@H](O)[C@@H]2O)c(=O)[nH]1 | > 400 | > 400 | > 400 | > 400 | > 400 | > 400 | > 400 | > 400 | > 400 | > 400 | > 400 | > 400 | > 200 | > 400 |  |  |  | 
2 | Nc1ccn([C@H]2O[C@H](CO)[C@H](O)[C@@H]2O)c(=O)n1 | > 400 | > 400 | > 400 | > 400 | > 400 | > 400 | > 400 | > 400 | > 400 | > 400 | > 400 | > 400 | > 400 | > 400 |  |  |  | 
3 | O=c1ccn([C@@H]2O[C@H](CO)[C@H](O)[C@@H]2O)c(=O)[nH]1 | > 400 | > 400 | > 400 | 100 (≈ 409 µM) | > 100 | > 400 | > 400 | > 400 | > 400 | > 400 | > 400 | > 400 | > 400 | > 400 |  |  |  | 
4 | NC(=O)c1ncn([C@@H]2O[C@H](CO)[C@@H](O)[C@H]2O)n1 [RIBAVIRIN] | > 200 | > 400 | 70 (≈ 287 µM) | > 400 | 10 (≈ 40.9 µM) | > 400 | 70 (≈ 287 µM) | 70 (≈ 287 µM) | > 400 | > 400 | 150 (≈ 614 µM) | > 400 | 70 (≈ 287 µM) | > 400 | 20 (≈ 81.9 µM) | 70 (≈ 287 µM) | 20 (≈ 81.9 µM) | 150 (≈ 614 µM)
5 | Cc1cn([C@H]2O[C@H](CO)[C@H](O)[C@@H]2O)c(=O)[nH]c1=O | > 400 | > 400 | > 400 | > 400 | > 400 | > 400 | > 400 | > 400 | > 400 | > 400 | > 400 | > 400 | > 200 | > 400 |  |  |  | 

Source: ChEMBL document CHEMBL1123770, “Systematic synthesis and biological evaluation of alpha- and beta-D-lyxofuranosyl nucleosides of the five naturally occurring nucleic acid bases” (1987)
